Data: patent publication US7432388B2 (Allergan, Inc., priority 2003, dated 2008)

Legend:
RARγ [1] = molecular target: T1, RARγ (Homo sapiens, UniProt P13631); assay: ligand binding assay; settings: expressed in Ki numbers, read-out: RAR Binding γ
T1 sequence (P13631 1-454): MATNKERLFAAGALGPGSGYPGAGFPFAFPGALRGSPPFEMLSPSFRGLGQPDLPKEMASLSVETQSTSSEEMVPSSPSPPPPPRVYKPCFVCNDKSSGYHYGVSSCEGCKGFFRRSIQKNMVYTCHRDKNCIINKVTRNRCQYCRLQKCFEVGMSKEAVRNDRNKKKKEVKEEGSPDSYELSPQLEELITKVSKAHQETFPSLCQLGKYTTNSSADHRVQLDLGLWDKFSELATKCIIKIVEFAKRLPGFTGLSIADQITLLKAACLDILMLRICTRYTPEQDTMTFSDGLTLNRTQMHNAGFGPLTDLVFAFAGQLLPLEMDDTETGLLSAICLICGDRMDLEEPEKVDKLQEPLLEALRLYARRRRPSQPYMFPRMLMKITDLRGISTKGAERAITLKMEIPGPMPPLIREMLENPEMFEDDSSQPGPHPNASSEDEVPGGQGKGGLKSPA
Method: The results obtained in this assay are expressed in EC50 numbers, as they are also in the chimeric receptor transactivation assay. The other functional assay running in the presence of 1 nM all-trans retinoic acid, namely PGA-RAR antagonist assay (utilizing glucocorticoid-retinoid chimeric receptors), is a modified chimeric receptor transactivation assay which tests the compounds for their antagonist-like activity in the RARα, RARγ and RARγ receptor subtypes.
The results of the ligand binding assay are expressed in Ki numbers.

RARβ [2] = molecular target: T2, RARβ (Homo sapiens, UniProt P10826); assay: chimeric receptor transactivation assay (agonist-like activity); type: cell-based; parameters: RAR EC50 (nM) (% Efficiency) β; settings: read-out: RAR EC50 (nM) (% Efficiency) β
T2 sequence (P10826 183-417 limits assumed): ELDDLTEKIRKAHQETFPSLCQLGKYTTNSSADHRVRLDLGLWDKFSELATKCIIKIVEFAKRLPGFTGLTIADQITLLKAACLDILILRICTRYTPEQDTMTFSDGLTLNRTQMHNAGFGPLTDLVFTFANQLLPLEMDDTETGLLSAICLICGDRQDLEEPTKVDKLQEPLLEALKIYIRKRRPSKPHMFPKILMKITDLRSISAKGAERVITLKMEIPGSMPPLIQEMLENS
Method: Specifically, one assay in which the compounds were tested is a chimeric receptor transactivation assay which tests for agonist-like activity in the RARα, RARγ and RARγ receptor subtypes, and which is based on work published by Feigner P. L. and Holm M (1989) Focus, 112 is described in detail in U.S. Pat. No. 5,455,265. The specification of U.S. Pat. No. 5,455,265 is hereby expressly incorporated by reference.
(§1) A holoreceptor transactivation assay and a ligand binding assay which measure the antagonist/agonist like activity of the compounds of the invention, or their ability to bind to the several retinoid receptor subtypes, respectively, are described in published PCT Application No. WO WO93/11755 (particularly on pages 30-33 and 37-41) published on Jun. 24, 1993, the specification of which is also incorporated herein by reference. A detailed experimental procedure for holoreceptor transactivations has been described by Heyman et al. Cell 68, 397-406, (1992); Allegretto et al. J. Biol. Chem. 268, 26625-26633, and Mangelsdorf et al. The Retinoids: Biology, Chemistry and Medicine, pp 319-349, Raven Press Ltd., New York, which are expressly incorporated herein by reference. The results obtained in this assay are expressed in EC50 numbers, as they are also in the chimeric receptor transactivation assay. The other functional assay running in the presence of 1 nM all-trans retinoic acid, namely PGA-RAR antagonist assay (utilizing glucocorticoid-retinoid chimeric receptors), is a modified chimeric receptor transactivation assay which tests the compounds for their antagonist-like activity in the RARα, RARγ and RARγ receptor subtypes. The results from this assay are normally expressed in IC50 numbers (See Teng et al. J. Med. Chem. 40, 2445-2452, (1997) incorporated herein by reference.)

RARγ [3] = molecular target: T3, RARγ (Homo sapiens, UniProt P13631); assay: as above; type: cell-based; parameters: RAR EC50 (nM) (% Efficiency) γ; settings: read-out: RAR EC50 (nM) (% Efficiency) γ
T3 sequence (P13631 185-419 limits assumed): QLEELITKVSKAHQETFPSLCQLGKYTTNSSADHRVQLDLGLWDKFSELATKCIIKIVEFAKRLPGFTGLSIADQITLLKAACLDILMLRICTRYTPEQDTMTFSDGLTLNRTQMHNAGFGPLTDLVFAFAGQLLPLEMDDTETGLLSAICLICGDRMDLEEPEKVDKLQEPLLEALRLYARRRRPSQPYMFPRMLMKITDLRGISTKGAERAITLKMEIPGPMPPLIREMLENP

RARα = molecular target: T4, RARα (Homo sapiens, UniProt P10276); assay: PGA-RAR antagonist assay (glucocorticoid-retinoid chimeric receptors); type: cell-based; parameters: other: in the presence of 1 nM all-trans retinoic acid; fused on or other part: Glucocorticoid receptor DNA-recognition part in place of RAR's own; settings: in the presence of 1 nM all-trans retinoic acid; read-out: RAR IC50 (nM) (% Inhibition) α
T4 sequence (P10276 183-417 limits assumed): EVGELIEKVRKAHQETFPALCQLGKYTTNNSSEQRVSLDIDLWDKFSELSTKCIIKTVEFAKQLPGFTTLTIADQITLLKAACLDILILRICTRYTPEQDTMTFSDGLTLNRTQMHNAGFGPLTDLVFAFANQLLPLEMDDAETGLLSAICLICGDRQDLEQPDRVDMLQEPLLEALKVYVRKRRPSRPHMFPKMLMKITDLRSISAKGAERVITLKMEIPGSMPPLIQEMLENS
Source text: as §1
(§2) Percentage inhibition in an antagonist assay is expressed as a percentage of the maximum inhibition of the transaction activity induced by 1 nM all-trans retinoic acid.

RARβ [4] = molecular target: T2, RARβ; assay: as above; type: cell-based; parameters: other: in the presence of 1 nM all-trans retinoic acid; fused on or other part: Glucocorticoid receptor DNA-recognition part in place of RAR's own; settings: in the presence of 1 nM all-trans retinoic acid; read-out: RAR IC50 (nM) (% Inhibition) β
Source text: as §1, §2

Structure (SMILES) | Ki (RARγ [1]) [µM] | EC50 (RARβ [2]) [nM] | EC50 (RARγ [3]) [nM] | IC50 (RARα) [nM] | IC50 (RARβ [4]) [nM]
Cc1ccc(C2=CC(C)(C)c3cc(C(/C=C/c4ccc(C(=O)O)cc4F)=N/O)ccc32)cc1 [Compound 18a, E-4-[3-(3,3-Dimethyl-1-p-tolyl-3H-inden-5-yl)-3-hydroxyimino-propenyl]-3-fluoro-benzoic acid] | 0.07 | > 10000 | > 10000 | > 1000 | > 1000
Cc1ccc(C2=CCC(C)(C)c3cc(C(/C=C/c4ccc(C(=O)O)cc4)=N\O)ccc32)cc1 [Compound 7b, Z-4-[3-(8,8-dimethyl-5-p-tolyl-7,8-dihydro-naphthalen-2-yl)-3-hydroxyimino-propenyl]-benzoic acid] | 0.029 | > 10000 | > 10000 | > 1000 | > 1000
Cc1ccc(C2=CC(C)(C)c3cc(C(/C=C/c4ccc(C(=O)O)cc4)=N/O)ccc32)cc1 [Compound 16a] | 0.025 | > 10000 | > 10000 | > 1000 | > 1000
Cc1ccc(C2=CCC(C)(C)c3cc(C(/C=C/c4ccc(C(=O)O)cc4)=N/O)ccc32)cc1 [Compound 7a, E-4-[3-(8,8-Dimethyl-5-p-tolyl-7,8-dihydro-naphthalen-2-yl)-3-hydroxyimino-propenyl]-benzoic acid] | 0.003 | > 10000 | > 10000 | > 1000 | > 1000
Cc1ccc(C2=CCC(C)(C)c3cc(C(/C=C/c4ccc(C(=O)O)cc4F)=N/O)ccc32)cc1 [Compound 9a, E-4-[3-(8,8-Dimethyl-5-p-tolyl-7,8-dihydro-naphthalen-2-yl)-3-hydroxyimino-propenyl]-3-fluoro-benzoic acid] | 0.011 | > 10000 | > 10000 | > 1000 | > 1000
Cc1ccc(C2=CCC(C)(C)c3cc(C(/C=C/c4ccc(C(=O)O)cc4)=NO)ccc32)cc1 (racemic) [Compound 7c, 4-[3-(8,8-Dimethyl-5-p-tolyl-7,8-dihydro-naphthalen-2-yl)-3-hydroxyimino-propenyl]-benzoic acid] | 0.006 | > 10000 | > 10000 | > 50000 | > 100000
Cc1ccc(C2=CC(C)(C)c3cc(C(/C=C/c4ccc(C(=O)O)cc4F)=N\O)ccc32)cc1 [Compound 18b, Z-4-[3-(3,3-Dimethyl-1-p-tolyl-3H-inden-5-yl)-3-hydroxyimino-propenyl]-3-fluoro-benzoic acid] | 0.717 | > 10000 | > 10000 | > 1000 | > 1000
Cc1ccc(C2=CCC(C)(C)c3cc(C(/C=C/c4ccc(C(=O)O)cc4F)=N\O)ccc32)cc1 [Compound 9b, Z-4-[3-(8,8-Dimethyl-5-p-tolyl-7,8-dihydro-naphthalen-2-yl)-3-hydroxyimino-propenyl]-3-fluoro-benzoic acid] | 0.133 | > 10000 | > 10000 | > 1000 | > 1000
Cc1ccc(C2=CC(C)(C)c3cc(C(/C=C/c4ccc(C(=O)O)cc4)=N\O)ccc32)cc1 [Compound 16b] | 0.145 | > 10000 | > 10000 | > 1000 | > 1000
